Experimental data reported in publication PMC11995216, “End-to-End Backbone Cyclization Enhances Passive Permeability of bRo5 Oligomeric Depsipeptides with Nonlinear Size Dependence” (ACS Medicinal Chemistry Letters, 2025).
Where “and” joins values, the source holds several entries; their conditions need not be identical. Equal entries are not always repeated. Where two headings read alike, the source gives them in different places.

Tests used:
[1] = PAMPA, 500 uM
PAMPA [2] = settings: UV detection
PAMPA [3] = settings: UV detection, initial concentration 500 uM
[4] = initial concentration 500 uM, UV detection
in vitro = settings: PAMPA, Papp
[5] = calculated using Supplement Equation 1, UV detection
[6] = UV detection

CCCCC[C@H](OC(=O)[C@@H](C)N(C)C(=O)[C@H](CCCCC)OC(=O)[C@@H](C)N(C)C(=O)[C@H](CCCCC)OC(=O)[C@@H](C)N(C)C(=O)[C@H](CCCCC)OC(=O)[C@@H](C)N(C)C(=O)OC(C)(C)C)C(=O)OCc1ccccc1 [Compound L1.4]
Δ % diffusion [1]: ↑14% | Papp (PAMPA [2]; Papp (x 10^-6 cm/s) / [row 1]): 1.61 ×10⁻⁶ cm/s | Papp (PAMPA [2]; Papp (x 10^-6 cm/s) / [row 2]): 2.02 ×10⁻⁶ cm/s | Papp (PAMPA [2]; Papp (x 10^-6 cm/s) / [row 3]): 2.01 ×10⁻⁶ cm/s | Papp (PAMPA [2]; Papp (x 10^-6 cm/s) / [row 4]): 2.03 ×10⁻⁶ cm/s | Papp (PAMPA [2]; Papp (x 10^-6 cm/s) / [row 5]): 2.24 ×10⁻⁶ cm/s | Papp (PAMPA [2]; Papp (x 10^-6 cm/s) / [row 6]): 2.09 ×10⁻⁶ cm/s | Papp (PAMPA [2]; Papp (x 10^-6 cm/s) / [row 7]): 1.63 ×10⁻⁶ cm/s | Papp (PAMPA [2]; Papp (x 10^-6 cm/s) / [row 8]): 1.88 ×10⁻⁶ cm/s | Papp (PAMPA [2]; Papp (x 10^-6 cm/s) / [row 9]): 2.15 ×10⁻⁶ cm/s | Papp (PAMPA [2]; Papp (x 10^-6 cm/s) / [row 10]): 1.75 ×10⁻⁶ cm/s | Papp (PAMPA [2]; Papp (x 10^-6 cm/s) / experiment 1): 1.61 ×10⁻⁶ cm/s | Papp (PAMPA [2]; Papp (x 10^-6 cm/s) / experiment 2): 2.02 ×10⁻⁶ cm/s | Papp (PAMPA [2]; Papp (x 10^-6 cm/s) / experiment 3): 2.01 ×10⁻⁶ cm/s | Papp (PAMPA [2]; Papp (x 10^-6 cm/s) / experiment 4): 2.03 ×10⁻⁶ cm/s | Papp (PAMPA [2]; Papp (x 10^-6 cm/s) / experiment 5): 2.24 ×10⁻⁶ cm/s | Papp (PAMPA [2]; Papp (x 10^-6 cm/s) / experiment 6): 2.09 ×10⁻⁶ cm/s | Papp (PAMPA [2]; Papp (x 10^-6 cm/s) / experiment 7): 1.63 ×10⁻⁶ cm/s | Papp (PAMPA [2]; Papp (x 10^-6 cm/s) / experiment 8): 1.88 ×10⁻⁶ cm/s | Papp (PAMPA [2]; Papp (x 10^-6 cm/s) / experiment 9): 2.15 ×10⁻⁶ cm/s | Papp (PAMPA [2]; Papp (x 10^-6 cm/s) / experiment 10): 1.75 ×10⁻⁶ cm/s | Acceptor Concentration (PAMPA [3]; Acceptor Concentration (uM) / [row 1]): 52.3 µM | Acceptor Concentration (PAMPA [3]; Acceptor Concentration (uM) / [row 2]): 57.9 µM | Acceptor Concentration (PAMPA [3]; Acceptor Concentration (uM) / [row 3]): 64.4 µM | Acceptor Concentration (PAMPA [3]; Acceptor Concentration (uM) / [row 4]): 61.4 µM | Acceptor Concentration (PAMPA [3]; Acceptor Concentration (uM) / [row 5]): 62.2 µM | Acceptor Concentration (PAMPA [3]; Acceptor Concentration (uM) / [row 6]): 61.3 µM | Acceptor Concentration (PAMPA [3]; Acceptor Concentration (uM) / [row 7]): 51.5 µM | Acceptor Concentration (PAMPA [3]; Acceptor Concentration (uM) / [row 8]): 55 µM | Acceptor Concentration (PAMPA [3]; Acceptor Concentration (uM) / [row 9]): 59.1 µM | Acceptor Concentration (PAMPA [3]; Acceptor Concentration (uM) / [row 10]): 51.7 µM | Acceptor Concentration (PAMPA [3]; Acceptor Concentration (uM) / experiment 1): 52.3 µM | Acceptor Concentration (PAMPA [3]; Acceptor Concentration (uM) / experiment 2): 57.9 µM | Acceptor Concentration (PAMPA [3]; Acceptor Concentration (uM) / experiment 3): 64.4 µM | Acceptor Concentration (PAMPA [3]; Acceptor Concentration (uM) / experiment 4): 61.4 µM | Acceptor Concentration (PAMPA [3]; Acceptor Concentration (uM) / experiment 5): 62.2 µM | Acceptor Concentration (PAMPA [3]; Acceptor Concentration (uM) / experiment 6): 61.3 µM | Acceptor Concentration (PAMPA [3]; Acceptor Concentration (uM) / experiment 7): 51.5 µM | Acceptor Concentration (PAMPA [3]; Acceptor Concentration (uM) / experiment 8): 55 µM | Acceptor Concentration (PAMPA [3]; Acceptor Concentration (uM) / experiment 9): 59.1 µM | Acceptor Concentration (PAMPA [3]; Acceptor Concentration (uM) / experiment 10): 51.7 µM | donor concentration after incubation ([4]; Well 1 / [donor], Well 1): 417 µM and 390 µM | donor concentration after incubation ([4]; Well 1 / [donor], Well 1, standard curve): 417 µM and 390 µM | donor concentration after incubation ([4]; Well 2 / [donor], Well 2): 379 µM and 406 µM | donor concentration after incubation ([4]; Well 2 / [donor], Well 2, standard curve): 379 µM and 406 µM | donor concentration after incubation ([4]; Well 3 / [donor], Well 3): 432 µM and 382 µM | donor concentration after incubation ([4]; Well 3 / [donor], Well 3, standard curve): 432 µM and 382 µM | donor concentration after incubation ([4]; Well 4 / [donor], Well 4): 404 µM and 364 µM | donor concentration after incubation ([4]; Well 4 / [donor], Well 4, standard curve): 404 µM and 364 µM | donor concentration after incubation ([4]; Well 5 / [donor], Well 5): 372 µM and 379 µM | donor concentration after incubation ([4]; Well 5 / [donor], Well 5, standard curve): 372 µM and 379 µM | Papp at 500 uM (in vitro): 1.94 ± 0.22 ×10⁻⁶ cm/s | %T ([5]; Well 1 / %T, Well 1): 0.25% (2×) and 0.31% (2×) | %T ([5]; Well 2 / %T, Well 2): 0.3% (2×) and 0.25% (2×) | %T ([5]; Well 3 / %T, Well 3): 0.3% (2×) and 0.28% (2×) | %T ([5]; Well 4 / %T, Well 4): 0.31% (2×) and 0.32% (2×) | %T ([5]; Well 5 / %T, Well 5): 0.33% (2×) and 0.26% (2×) | % recovery ([6]; Well 1 / %R, Well 1): 94% | % recovery ([6]; Well 2 / %R, Well 2): 87% (2×) and 92% (2×) | % recovery ([6]; Well 3 / %R, Well 3): 99% (2×) and 87% (2×) | % recovery ([6]; Well 4 / %R, Well 4): 93% (2×) and 85% (2×) | % recovery ([6]; Well 5 / %R, Well 5): 87% (2×) and 86% (2×)
